Data reported in PubChem BioAssay (NCI).
“And” between values parts separate entries of the source, which are not always exact repeats. Identical values can stand only once.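 Following 48 hours of exposure in 96-well plates, responses at five concentrations were used to interpolate endpoints linearly. At the GI50, growth is halved. Definition used: TGI = concentration required for complete inhibition of growth.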

Legend:
Assay in all cases: NCI tumour cell line growth inhibition, 48 h
HS 578T breast = tested on: HS 578T breast
DMS 114 small cell lung = tested on: DMS 114 small cell lung
NCI/ADR-RES ovarian = tested on: NCI/ADR-RES ovarian
LXFL 529 NSCLC = tested on: LXFL 529 NSCLC
M19-MEL melanoma = tested on: M19-MEL melanoma
DMS 273 small cell lung = tested on: DMS 273 small cell lung
HOP-18 NSCLC = tested on: HOP-18 NSCLC
MCF7 breast = tested on: MCF7 breast
DLD-1 colon = tested on: DLD-1 colon
BT-549 breast = tested on: BT-549 breast

SMILES	TGI (HS 578T breast) [µM]	TGI (DMS 114 small cell lung)	TGI (NCI/ADR-RES ovarian) [µM]	TGI (LXFL 529 NSCLC)	TGI (M19-MEL melanoma) [µM]	TGI (DMS 273 small cell lung) [µM]	TGI (HOP-18 NSCLC)	TGI (MCF7 breast) [µM]	TGI (DLD-1 colon)	TGI (BT-549 breast) [µM]	GI50 (DMS 114 small cell lung) [µM]	GI50 (LXFL 529 NSCLC) [µM]	GI50 (M19-MEL melanoma) [µM]	GI50 (DMS 273 small cell lung) [µM]	GI50 (HOP-18 NSCLC)	GI50 (DLD-1 colon) [µM]
Cc1cc(=O)oc2c(C3=NN(C=O)C(c4ccccc4)C3)c(O)ccc12 (configuration not stated)	> 93.2	> 100 µM	> 100	> 100 µM	> 100	> 100	> 100 µM	> 95.5	> 100 µM	> 100	–	–	–	–	–	–
C#CCN(N=O)C(=O)NC(CCCCNC(=O)OCc1ccccc1)C(=O)OCc1ccccc1 (configuration not stated)	–	44 µM	–	31.7 µM	> 100	> 100	44.9 µM	–	42.7 µM	–	–	–	–	–	–	–
COc1cc(/C=C/C(=O)c2cccc3ccccc23)cc(OC)c1OC	–	–	–	10.3 µM	38.2	23.9	24.8 µM	–	–	–	–	–	–	–	–	–
COC(=O)C(=O)C(CC(=O)Nc1cc(Cl)ccc1Cl)C(=O)OC (configuration not stated)	–	> 100 µM	–	> 100 µM	–	> 100	> 100 µM	–	–	–	–	–	–	–	–	–
O=C(NCCCCCCCCCCCCNC(=O)c1cnc2ccccc2n1)c1cnc2ccccc2n1	–	> 100 µM	–	> 100 µM	> 100	> 100	79.4 µM	–	> 100 µM	–	–	–	–	–	–	–
O/N=C1/CCC/C1=C\c1ccccc1	–	–	–	> 100 µM	–	> 100	> 100 µM	–	> 100 µM	–	–	–	–	–	–	–
Cc1cccc(C(C)(C)C)c1NC(=O)C(C#N)C1=C(Cl)C(=O)c2ccccc2C1=O (configuration not stated)	52.5	38.3 µM	37.7	29.2 µM	–	36.2	24.3 µM	32.9	33.4 µM	27.5	–	–	–	–	–	–
CCCCC(C(=O)C(=O)Nc1ccc(C)cc1C)C(=O)C(C)C (configuration not stated)	–	> 100 µM	–	> 100 µM	> 100	> 100	> 100 µM	–	> 100 µM	–	–	–	–	–	–	–
CC(=O)Nc1ccccc1-c1nc2ccccc2nc1-c1ccccc1	–	> 100 µM	–	> 100 µM	> 100	> 100	> 100 µM	–	> 100 µM	–	–	–	–	–	–	–
CCc1cccc(C(C)C)c1NC(=O)CC1Sc2ccccc2NC1=O (configuration not stated)	–	> 100 µM	–	> 100 µM	> 100	> 100	> 100 µM	–	> 100 µM	–	–	–	–	–	–	–
O=C(CCc1nc(=S)[nH][nH]1)Nc1cc(Cl)ccc1Cl	–	> 100 µM	–	> 100 µM	> 100	> 100	> 100 µM	–	> 100 µM	–	–	–	–	–	–	–
NC(CCSCC(F)(F)F)C(=O)O (configuration not stated)	–	> 100 µM	–	> 100 µM	> 100	> 100	> 100 µM	–	> 100 µM	–	–	–	–	–	–	–
COc1cccc(/C=N/[N-]C(=O)c2ccncc2)c1[O-].[Mn+2].[OH3+]	–	58.7 µM	–	> 100 µM	46.4	73.5	> 100 µM	–	> 100 µM	–	14.6	15.3	7.54	6.73	14.7 µM	5.23
O=C1OC(CC(=O)c2ccc(F)cc2)C(Cl)=C1Cl (configuration not stated)	–	> 100 µM	–	31.9 µM	> 100	–	44.6 µM	–	47.4 µM	–	–	–	–	–	–	–
N#CCCN(CCC#N)c1ccc(/C=C(/NC(=O)c2cc([N+](=O)[O-])ccc2Cl)C(=O)N=[N+]=[N-])cc1	–	> 100 µM	–	> 100 µM	> 100	> 100	> 100 µM	–	> 100 µM	–	–	–	–	–	–	–
CC(=O)OC1C[C@H]2C(OC(=O)c3ccccc3)C3C4(OC(C)=O)COC4C[C@H](OC(C)=O)[C@@]3(C)C(OC(C)=O)[C@H](OC(C)=O)C(=C1C)C2(C)C (some centres not stated)	–	> 100 µM	–	> 100 µM	> 100	> 100	> 100 µM	–	> 100 µM	–	–	–	–	–	–	–
NC(Cc1ccccc1)C(=O)OCN1C(=O)C2C3C=CC(C2C1=O)C1C2C(=O)N(COC(=O)C(N)Cc4ccccc4)C(=O)C2C31 (configuration not stated)	–	40.4 µM and 33.8 µM	–	39.7 µM and 37.9 µM	38.4	–	> 100 µM and 52.1 µM	–	51.4 µM and 60.6 µM	–	–	–	21.6	–	45.3 µM and 20 µM	–
NC1=NN(c2ccccc2)C(=O)C1C(=O)C(=O)Nc1ccc(Cl)cc1 (configuration not stated)	–	> 100 µM	–	> 100 µM	> 100	> 100	> 100 µM	–	> 100 µM	–	–	–	–	–	–	–
COC(=O)C(C(=O)C(=O)Nc1ccc(C)cc1)c1nc2ccc([N+](=O)[O-])cc2[nH]c1=O (configuration not stated)	–	> 100 µM	–	> 100 µM	> 100	> 100	> 100 µM	–	> 100 µM	–	–	–	–	–	–	–
C/C(=C1/N=C(c2cc([N+](=O)[O-])ccc2Cl)N(c2ccc(Br)cc2)C1=O)c1ccc(N(CCC#N)CCC#N)cc1C	–	27.2 µM	–	> 100 µM	92.3	43.8	> 100 µM	–	32.2 µM	–	–	–	–	–	–	–
COc1ccc(C(c2ccccc2C(=O)O)c2ccc(OC)c3ccccc23)c2ccccc12	–	21.1 µM	–	20.7 µM	27.6	32.4	13.4 µM	–	22.2 µM	–	–	–	–	–	–	–
CCCCCCCCCCC(=O)CCCCCCC(=O)O	–	50.3 µM	–	40.1 µM	74.7	47.1	39 µM	–	47.2 µM	–	–	–	–	–	–	–
C/C(=N\Nc1ccccc1)c1sc(-c2nc(C)c(/C(C)=N/Nc3ccccc3)s2)nc1C	–	> 30.8 µM	–	> 82 µM	> 85.2	> 21.1	> 96.6 µM	–	> 100 µM	–	–	–	–	–	–	–
Nc1cn(C2OC(CC(c3ccccc3)(c3ccccc3)c3ccccc3)C(O)C2O)c(=O)[nH]c1=O (configuration not stated)	–	35.4 µM	–	91.8 µM	34.9	> 100	67.7 µM	–	54.6 µM	–	–	–	–	–	–	–
Cc1ccccc1/C=C/c1csnn1	–	> 56 µM	–	> 100 µM	> 100	> 100	> 100 µM	–	> 74.3 µM	–	–	–	–	–	–	–
O=C1C=CC2(CCCCCCC2=O)CC1 (configuration not stated)	–	–	–	> 100 µM	> 100	> 100	> 100 µM	–	> 100 µM	–	–	–	–	–	–	–
